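Dose response: 5 concentrations. Exposure: 48 h. Format: 96-well plates. Endpoint: linear interpolation; highest concentration if not reached. The concentration for 50% growth inhibition is given as GI50. TGI marks complete inhibition of growth.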
Legend:
Assay in all cases: NCI-60 cell line screen, 48 h
NCI-H460 lung = tested on: NCI-H460 lung
M14 melanoma = tested on: M14 melanoma
SF-539 CNS = tested on: SF-539 CNS
UACC-62 melanoma = tested on: UACC-62 melanoma
EKVX NSCLC = tested on: EKVX NSCLC
SF-268 CNS = tested on: SF-268 CNS
MOLT-4 leukemia = tested on: MOLT-4 leukemia
DU-145 prostate = tested on: DU-145 prostate
PC-3 prostate = tested on: PC-3 prostate
T-47D breast = tested on: T-47D breast

Row | SMILES | TGI (NCI-H460 lung) [µM] | TGI (M14 melanoma) [µM] | TGI (SF-539 CNS) [µM] | TGI (UACC-62 melanoma) [µM] | TGI (EKVX NSCLC) [µM] | TGI (SF-268 CNS) [µM] | TGI (MOLT-4 leukemia) [µM] | TGI (DU-145 prostate) [µM] | TGI (PC-3 prostate) [µM] | GI50 (NCI-H460 lung) [µM] | GI50 (T-47D breast) [µM] | TGI (T-47D breast) [µM] | GI50 (SF-539 CNS) [µM] | GI50 (UACC-62 melanoma) [µM] | GI50 (DU-145 prostate) [µM] | GI50 (MOLT-4 leukemia) [µM] | GI50 (EKVX NSCLC) [µM] | GI50 (SF-268 CNS) [µM] | GI50 (PC-3 prostate) [µM] | GI50 (M14 melanoma) [µM]
1 | CCN(CC)CCCn1cnc2ncccc2c1=O | > 100 | > 100 | > 100 | > 100 | > 100 | > 100 |  |  |  |  |  |  |  |  |  |  |  |  |  | 
2 | CC1(Cl)CC2OC3(Br)C=CC(C)(O)C2(CC1Br)C3(C)C (centres undefined) | > 100 | > 100 | > 100 | > 100 | > 100 | > 100 | > 100 |  |  |  |  |  |  |  |  |  |  |  |  | 
3 | Nc1cc(C(=O)O)[nH]c(=O)n1 | > 100 | > 100 |  | > 100 | > 100 | > 100 | > 100 | > 100 | > 100 |  |  |  |  |  |  |  |  |  |  | 
4 | CSc1cccc(-n2c3nc(=O)n(C)c(=O)c-3nc3ccccc32)c1 | 10.2 | 9.79 | 12.4 | 6.14 | 36.6 | 61.9 | 32.3 |  |  |  |  |  |  |  |  |  |  |  |  | 
5 | Cc1ccccc1C1=[N+]([O-])c2ccccc2C1=O | 37.3 | 32.4 | 33.7 | 34.6 | 35.4 | 36.8 | 49.2 |  |  |  |  |  |  |  |  |  |  |  |  | 
6 | Cc1ccc(NC(=O)Cc2ccc(/C=C/C(=O)c3ncc[nH]3)cc2)cc1 | > 25 |  | 14 | > 25 | > 25 | > 25 | > 25 | > 25 | > 25 | 6.32 | 6.47 | > 25 | 4.77 | 8.29 | 4.56 | 5.33 | 13.5 | 5.32 | 7.1 | 
7 | COC(c1cccc(C(O)(C(F)(F)F)C(F)(F)F)c1)(C(F)(F)F)C(F)(F)F | 41.5 | 34 | 33.3 | 28.2 | 33.3 | 38.5 | 40.5 |  |  |  |  |  |  |  |  |  |  |  |  | 
8 | COc1ccc(NC(=O)CC(=O)N2N=C(N(CCC#N)c3ccccc3Cl)CC2c2ccccc2)cc1 (centres undefined) | > 100 | > 100 | > 100 | > 100 | > 100 | > 100 | > 100 |  |  |  |  |  |  |  |  |  |  |  |  | 
9 | Clc1ccc(/C=C/c2cc(N3CCOCC3)c3cc(Cl)c(Cl)cc3n2)cc1 | > 100 | > 100 | > 100 | > 100 |  | > 100 |  | > 100 | > 100 | > 100 | > 100 | > 100 | > 100 | > 100 | > 100 | 0.428 |  | > 100 | 1.61 | > 100
10 | N#Cc1ncc(-c2ccc(C(F)(F)F)cc2)c(NCc2cc(C(F)(F)F)cc(C(F)(F)F)c2)n1 | 10.2 | > 100 | > 100 | > 100 |  | > 100 | 9.79 | > 100 | 8.48 | 3.02 | 3.35 | > 100 | 8.5 | 3.93 | 5.19 | 3.17 |  | 8.17 | 2.42 | 5.19
11 | COc1cccc(C2C3=C(COC3=O)N(CCO)c3cc(OC)ccc32)c1 (centres undefined) |  | > 100 |  | > 100 | > 100 | > 100 | > 100 | 1.91 | > 100 | 0.0906 |  |  | 0.0878 | 0.0488 | 0.139 | 0.44 | 22.6 | 0.181 | 0.0898 | 0.156
12 | CC[O-].CC[O-].O=C([CH-]C(=O)c1cccnc1)c1ccccc1.O=C([CH-]C(=O)c1cccnc1)c1ccccc1.[Ti+4] | > 100 | > 100 | > 100 | > 100 | > 100 | > 100 | > 100 |  |  | 31.2 |  |  | 43.1 | > 100 |  | 13.6 | > 100 | 88.3 |  | 60.4
13 | Nc1nc(N)c(Cn2ccnc2)c(=O)[nH]1 | > 100 | > 100 | > 100 | > 100 | > 100 | > 100 |  | > 100 | > 100 |  |  | > 100 |  |  |  |  |  |  |  | 
14 | C/C=C/C1=C(Cl)C(=O)[C@@H](Cl)[C@@]1(O)C(=O)OC | 15.2 | 11.9 | 5.45 | 4.18 | 9.27 | 24.2 | 12.9 |  |  |  |  |  |  |  |  |  |  |  |  | 
15 | Cn1cc(C2=C(c3cccc(N)c3)C(=O)NC2=O)c2ccccc21 | > 25 | > 25 | > 25 | > 25 |  | > 25 | > 25 | > 25 | > 25 | 13.6 | 14.3 | > 25 | 4.07 | 12.6 | 19 | 14.1 |  | 24.6 | 14.8 | > 25
16 | CC(=O)Oc1cc(C)c2c(c1OC(C)=O)CC1(O2)[C@@H](C)CCC2[C@@]3(C)CC[C@H](OC(C)=O)C(C)(C)C3CC[C@]21C (some centres undefined) | 10.8 | 18.7 | 7.23 | 5.26 | 11.4 | 12.8 | 42.2 |  |  |  |  |  |  |  |  |  |  |  |  | 
17 | CN(C)CCN(C)CC1COC(C)(C)O1 (centres undefined) | > 100 | > 100 | > 100 | > 100 | > 100 | > 100 | > 100 |  |  |  |  |  |  |  |  |  |  |  |  | 
18 | Cc1oc2c(C)c3oc(=O)cc(C)c3cc2c1CNC(=O)[C@@H]1OCCOCCOCCOCCOCCOC1C(=O)O (some centres undefined) | > 100 | 27.5 | > 100 | > 100 | > 100 | > 100 | > 100 |  |  |  |  |  |  |  |  |  |  |  |  | 
19 | CCOC(=O)c1c(-c2ccccc2)oc(-c2ccccc2)c1C(=O)OCC |  | > 100 | > 100 | > 100 | > 100 | > 100 | > 100 |  |  |  |  |  |  |  |  |  |  |  |  | 
20 | O=C1c2cccnc2C(=O)C2C3C=CC(C3)C12 (centres undefined) | 15.6 | 28 | 13.4 | 9.94 | 28.8 | 24.3 |  | 19.8 | 21.8 |  |  | 13.2 |  |  |  |  |  |  |  | 
21 | CCCCCCCC(=O)NCC(O)CNC(=O)CCCCCCC | > 100 | > 100 | > 100 | > 100 | > 100 | > 100 | > 100 |  |  |  |  |  |  |  |  |  |  |  |  | 

From PubChem BioAssay (NCI)
